Laboratory results from ChEMBL document CHEMBL1201862, “PubChem BioAssay data set” (2004).
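Method: 48-hour compound exposure of cells in 96-well plates, five concentrations, linear interpolation of endpoints. Here, GI50 denotes the concentration required for 50% inhibition of growth.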 Active and inactive are the calls of the source. Cut-off read from the data, not from the text of the source: active = GI50 up to about 1.1 µM and inactive = higher.

Assays:
Test in all cases: DTP human tumour cell line panel, 48 h
DU-145 = tested on: DU-145
UACC-257 = tested on: UACC-257
OVCAR-3 = tested on: OVCAR-3
NCI-H23 = tested on: NCI-H23
OVCAR-5 = tested on: OVCAR-5
NCI-H460 = tested on: NCI-H460
MDA-MB-231 = tested on: MDA-MB-231
IGROV-1 = tested on: IGROV-1
COLO 205 = tested on: COLO 205
ACHN = tested on: ACHN
NCI/ADR-RES = tested on: NCI/ADR-RES
SNB-75 = tested on: SNB-75
SF-268 = tested on: SF-268
BT-549 = tested on: BT-549
SW-620 = tested on: SW-620
OVCAR-8 = tested on: OVCAR-8
Hs-578T = tested on: Hs-578T
SF-539 = tested on: SF-539
NCI-H522 = tested on: NCI-H522
NCI-H226 = tested on: NCI-H226
LOX IMVI = tested on: LOX IMVI
MDA-MB-435 = tested on: MDA-MB-435
SN12C = tested on: SN12C
Malme-3M = tested on: Malme-3M
SK-OV-3 = tested on: SK-OV-3
UACC-62 = tested on: UACC-62
HCT-15 = tested on: HCT-15
786-0 = tested on: 786-0
SF-295 = tested on: SF-295
CCRF-CEM = tested on: CCRF-CEM
HCT-116 = tested on: HCT-116
MCF7 = tested on: MCF7
K562 = tested on: K562
T47D = tested on: T47D
SNB-19 = tested on: SNB-19
RXF 393 = tested on: RXF 393
HOP-62 = tested on: HOP-62
A498 = tested on: A498
HCC 2998 = tested on: HCC 2998
TK-10 = tested on: TK-10
OVCAR-4 = tested on: OVCAR-4
EKVX = tested on: EKVX
HT-29 = tested on: HT-29
SK-MEL-28 = tested on: SK-MEL-28
U-251 = tested on: U-251
PC-3 = tested on: PC-3
KM12 = tested on: KM12
SR = tested on: SR
UO-31 = tested on: UO-31
MOLT-4 = tested on: MOLT-4
HOP-92 = tested on: HOP-92
SK-MEL-5 = tested on: SK-MEL-5
HL-60 = tested on: HL-60
M14 = tested on: M14
A549 = tested on: A549
MDA-N = tested on: MDA-N
RPMI-8226 = tested on: RPMI-8226
CAKI-1 = tested on: CAKI-1

Q: With `Cc1cccc(C2NC(=O)c3ccccc3N2)c1` (centres undefined) as the molecule, how does the GI50 (DU-145) read?
A: The GI50 was 7.96 µM (inactive).

Q: What about the GI50 (UACC-257) of the same molecule?
A: Its GI50 is > 31.3 µM (inactive).

Q: And the GI50 (OVCAR-3)?
A: Its GI50 is 3.22 µM (inactive).

Q: And the GI50 (NCI-H23)?
A: Its GI50 is 5.11 µM (inactive).

Q: What about the GI50 (OVCAR-5) of the same molecule?
A: The GI50 was 17.3 µM (inactive).

Q: And the GI50 (NCI-H460)?
A: The GI50 was 3.3 µM (inactive).

Q: What about the GI50 (MDA-MB-231) of the same molecule?
A: Its GI50 is 25.8 µM (inactive).

Q: What about the GI50 (IGROV-1) of the same molecule?
A: Its GI50 is 4.62 µM (inactive).

Q: And the GI50 (COLO 205)?
A: Its GI50 is 4.19 µM (inactive).

Q: And the GI50 (ACHN)?
A: The GI50 was 12.9 µM (inactive).

Q: And the GI50 (NCI/ADR-RES)?
A: Its GI50 is 4.67 µM (inactive).

Q: What about the GI50 (SNB-75) of the same molecule?
A: The GI50 was 4.5 µM (inactive).

Q: And the GI50 (SF-268)?
A: Its GI50 is 11.3 µM (inactive).

Q: And the GI50 (BT-549)?
A: The GI50 was 5.68 µM (inactive).

Q: What about the GI50 (SW-620) of the same molecule?
A: The GI50 was 5.62 µM (inactive).

Q: And the GI50 (OVCAR-8)?
A: Its GI50 is 6.1 µM (inactive).

Q: What about the GI50 (Hs-578T) of the same molecule?
A: Its GI50 is 8.43 µM (inactive).

Q: What about the GI50 (SF-539) of the same molecule?
A: The GI50 was 2.33 µM (inactive).

Q: And the GI50 (NCI-H522)?
A: The GI50 was 3.69 µM (inactive).

Q: And the GI50 (NCI-H226)?
A: Its GI50 is 5.35 µM (inactive).

Q: And the GI50 (LOX IMVI)?
A: Its GI50 is > 27 µM (inactive).

Q: What about the GI50 (MDA-MB-435) of the same molecule?
A: The GI50 was 0.399 µM (active).

Q: And the GI50 (SN12C)?
A: The GI50 was 5.87 µM (inactive).

Q: And the GI50 (Malme-3M)?
A: The GI50 was 17.7 µM (inactive).

Q: And the GI50 (SK-OV-3)?
A: Its GI50 is 4.4 µM (inactive).

Q: What about the GI50 (UACC-62) of the same molecule?
A: Its GI50 is 6.24 µM (inactive).

Q: And the GI50 (HCT-15)?
A: Its GI50 is 2.85 µM.

Q: What about the GI50 (786-0) of the same molecule?
A: The GI50 was 4.55 µM (inactive).

Q: And the GI50 (SF-295)?
A: Its GI50 is 2.88 µM (inactive).

Q: What about the GI50 (CCRF-CEM) of the same molecule?
A: Its GI50 is 3.23 µM (inactive).

Q: And the GI50 (HCT-116)?
A: Its GI50 is 3.28 µM (inactive).

Q: And the GI50 (MCF7)?
A: The GI50 was 3.15 µM (inactive).

Q: What about the GI50 (K562) of the same molecule?
A: Its GI50 is 0.906 µM (active).

Q: And the GI50 (T47D)?
A: The GI50 was > 100 µM (inactive).

Q: And the GI50 (SNB-19)?
A: Its GI50 is 11 µM (inactive).

Q: And the GI50 (RXF 393)?
A: The GI50 was 4.44 µM (inactive).

Q: And the GI50 (HOP-62)?
A: Its GI50 is 6.03 µM (inactive).

Q: What about the GI50 (A498) of the same molecule?
A: The GI50 was 6.4 µM (inactive).

Q: And the GI50 (HCC 2998)?
A: The GI50 was 6.64 µM (inactive).

Q: What about the GI50 (TK-10) of the same molecule?
A: Its GI50 is > 84.1 µM (inactive).

Q: And the GI50 (OVCAR-4)?
A: Its GI50 is > 49.1 µM (inactive).

Q: What about the GI50 (EKVX) of the same molecule?
A: Its GI50 is 7.76 µM (inactive).

Q: What about the GI50 (HT-29) of the same molecule?
A: The GI50 was 2.75 µM (inactive).

Q: And the GI50 (SK-MEL-28)?
A: Its GI50 is > 28.7 µM (inactive).

Q: What about the GI50 (U-251) of the same molecule?
A: Its GI50 is 4.95 µM (inactive).

Q: What about the GI50 (PC-3) of the same molecule?
A: The GI50 was 3.95 µM (inactive).

Q: And the GI50 (KM12)?
A: Its GI50 is 3.21 µM (inactive).

Q: What about the GI50 (SR) of the same molecule?
A: Its GI50 is 0.791 µM (active).

Q: What about the GI50 (UO-31) of the same molecule?
A: The GI50 was > 26.4 µM (inactive).

Q: And the GI50 (MOLT-4)?
A: Its GI50 is 1.8 µM (inactive).

Q: And the GI50 (HOP-92)?
A: The GI50 was > 58.9 µM (inactive).

Q: And the GI50 (SK-MEL-5)?
A: Its GI50 is 3.38 µM (inactive).

Q: And the GI50 (HL-60)?
A: The GI50 was 0.802 µM (active).

Q: And the GI50 (M14)?
A: The GI50 was 2.64 µM (inactive).

Q: What about the GI50 (A549) of the same molecule?
A: Its GI50 is 6.12 µM (inactive).

Q: And the GI50 (MDA-N)?
A: The GI50 was 0.543 µM (active).

Q: And the GI50 (RPMI-8226)?
A: The GI50 was 3.2 µM (inactive).

Q: What about the GI50 (CAKI-1) of the same molecule?
A: The GI50 was 8.65 µM (inactive).

Q: Which results are given for `COc1ccc(C2=Nn3c(nc4sc(C)c(C)c4c3=O)SC2)cc1`?
A: GI50 (DU-145): > 100 µM (inactive); GI50 (UACC-257): > 100 µM (inactive); GI50 (OVCAR-3): > 100 µM (inactive); GI50 (NCI-H23): > 100 µM (inactive); GI50 (OVCAR-5): > 100 µM (inactive); GI50 (NCI-H460): > 100 µM (inactive); GI50 (MDA-MB-231): > 100 µM (inactive); GI50 (IGROV-1): > 100 µM (inactive); GI50 (COLO 205): > 100 µM (inactive); GI50 (ACHN): > 100 µM (inactive); GI50 (NCI/ADR-RES): > 100 µM (inactive); GI50 (SNB-75): > 100 µM (inactive); GI50 (SF-268): > 100 µM (inactive); GI50 (BT-549): > 100 µM (inactive); GI50 (SW-620): > 100 µM (inactive); GI50 (OVCAR-8): > 100 µM (inactive); GI50 (Hs-578T): > 100 µM (inactive); GI50 (SF-539): > 100 µM (inactive); GI50 (NCI-H522): > 100 µM (inactive); GI50 (NCI-H226): > 100 µM (inactive); GI50 (LOX IMVI): > 100 µM (inactive); GI50 (MDA-MB-435): > 100 µM (inactive); GI50 (SN12C): > 100 µM (inactive); GI50 (Malme-3M): > 100 µM (inactive); GI50 (SK-OV-3): > 100 µM (inactive); GI50 (UACC-62): > 100 µM (inactive); GI50 (HCT-15): > 100 µM; GI50 (786-0): > 100 µM (inactive); GI50 (SF-295): > 100 µM (inactive); GI50 (CCRF-CEM): > 100 µM (inactive); GI50 (HCT-116): > 100 µM (inactive); GI50 (MCF7): > 100 µM (inactive); GI50 (K562): > 100 µM (inactive); GI50 (T47D): > 100 µM (inactive); GI50 (RXF 393): > 100 µM (inactive); GI50 (HOP-62): > 100 µM (inactive); GI50 (A498): > 100 µM (inactive); GI50 (HCC 2998): > 100 µM (inactive); GI50 (TK-10): > 100 µM (inactive); GI50 (OVCAR-4): > 100 µM (inactive); GI50 (EKVX): > 100 µM (inactive); GI50 (HT-29): > 100 µM (inactive); GI50 (SK-MEL-28): > 100 µM (inactive); GI50 (U-251): > 100 µM (inactive); GI50 (PC-3): > 100 µM (inactive); GI50 (KM12): > 100 µM (inactive); GI50 (SR): > 100 µM (inactive); GI50 (UO-31): > 100 µM (inactive); GI50 (MOLT-4): > 100 µM (inactive); GI50 (HOP-92): > 100 µM (inactive); GI50 (SK-MEL-5): > 100 µM (inactive); GI50 (HL-60): > 100 µM (inactive); GI50 (A549): > 100 µM (inactive); GI50 (MDA-N): > 100 µM (inactive); GI50 (RPMI-8226): > 100 µM (inactive); GI50 (CAKI-1): > 100 µM (inactive)
